#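 The compound was tested at five concentrations on cells cultured in 96-well plates, with a 48-hour exposure period. GI50 marks 50% less growth.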 Activity calls are given as the source filed them. No stated cut-off is given here; in the data, active = GI50 up to about 1.1 µM and inactive = higher.
# How the values were obtained:
# Assay in all cases: NCI anticancer screen, dose series, 48 h
# IGROV-1 = system: IGROV-1
# HOP-62 = system: HOP-62
# SN12C = system: SN12C
# LOX IMVI = system: LOX IMVI
# SNB-75 = system: SNB-75
# RXF 393 = system: RXF 393
# BT-549 = system: BT-549
# COLO 205 = system: COLO 205
# CAKI-1 = system: CAKI-1
# UACC-257 = system: UACC-257
# T47D = system: T47D
# OVCAR-5 = system: OVCAR-5
# KM12 = system: KM12
# U-251 = system: U-251
# Hs-578T = system: Hs-578T
# MDA-MB-231 = system: MDA-MB-231
# MOLT-4 = system: MOLT-4
# A549 = system: A549
# OVCAR-3 = system: OVCAR-3
# DU-145 = system: DU-145
# NCI-H460 = system: NCI-H460
# HCT-15 = system: HCT-15
# NCI/ADR-RES = system: NCI/ADR-RES
# HCT-116 = system: HCT-116
# SK-OV-3 = system: SK-OV-3
# SK-MEL-28 = system: SK-MEL-28
# HOP-92 = system: HOP-92
# SF-268 = system: SF-268
# CCRF-CEM = system: CCRF-CEM
# EKVX = system: EKVX
# SR = system: SR
# OVCAR-4 = system: OVCAR-4
# M14 = system: M14
# NCI-H522 = system: NCI-H522
# TK-10 = system: TK-10
# A498 = system: A498
# NCI-H226 = system: NCI-H226
# OVCAR-8 = system: OVCAR-8
# HCC 2998 = system: HCC 2998
# RPMI-8226 = system: RPMI-8226
# UO-31 = system: UO-31
# ACHN = system: ACHN
# SF-539 = system: SF-539
# HL-60 = system: HL-60
# K562 = system: K562
# PC-3 = system: PC-3
# UACC-62 = system: UACC-62
# NCI-H23 = system: NCI-H23
# MDA-MB-435 = system: MDA-MB-435
# Malme-3M = system: Malme-3M
# SW-620 = system: SW-620
# HT-29 = system: HT-29
# SK-MEL-5 = system: SK-MEL-5
# 786-0 = system: 786-0
# SNB-19 = system: SNB-19
# SF-295 = system: SF-295
# MDA-N = system: MDA-N
smiles,measurement,setting,value
C#CCOCC12C=CC(O1)C1COC(=O)C12 (configuration not stated),GI50,IGROV-1,> 100 µM (inactive)
same,GI50,HOP-62,> 100 µM (inactive)
same,GI50,SN12C,> 100 µM (inactive)
same,GI50,LOX IMVI,> 100 µM (inactive)
same,GI50,SNB-75,> 100 µM (inactive)
same,GI50,RXF 393,> 100 µM (inactive)
same,GI50,BT-549,> 100 µM (inactive)
same,GI50,COLO 205,> 100 µM (inactive)
same,GI50,CAKI-1,> 100 µM (inactive)
same,GI50,UACC-257,> 100 µM (inactive)
same,GI50,T47D,> 100 µM (inactive)
same,GI50,OVCAR-5,> 100 µM (inactive)
same,GI50,KM12,> 100 µM (inactive)
same,GI50,U-251,> 100 µM (inactive)
same,GI50,Hs-578T,> 100 µM (inactive)
same,GI50,MDA-MB-231,> 100 µM (inactive)
same,GI50,MOLT-4,> 100 µM (inactive)
same,GI50,A549,> 100 µM (inactive)
same,GI50,OVCAR-3,> 100 µM (inactive)
same,GI50,DU-145,> 100 µM (inactive)
same,GI50,NCI-H460,> 100 µM (inactive)
same,GI50,HCT-15,> 100 µM
same,GI50,NCI/ADR-RES,> 100 µM (inactive)
same,GI50,HCT-116,> 100 µM (inactive)
same,GI50,SK-OV-3,> 100 µM (inactive)
same,GI50,SK-MEL-28,> 100 µM (inactive)
same,GI50,HOP-92,7.14 µM (inactive)
same,GI50,SF-268,> 100 µM (inactive)
same,GI50,CCRF-CEM,> 100 µM (inactive)
same,GI50,EKVX,> 100 µM (inactive)
same,GI50,SR,> 100 µM (inactive)
same,GI50,OVCAR-4,> 100 µM (inactive)
same,GI50,M14,> 100 µM (inactive)
same,GI50,NCI-H522,> 100 µM (inactive)
same,GI50,TK-10,> 100 µM (inactive)
same,GI50,A498,> 100 µM (inactive)
same,GI50,NCI-H226,> 100 µM (inactive)
same,GI50,OVCAR-8,> 100 µM (inactive)
same,GI50,HCC 2998,> 100 µM (inactive)
same,GI50,RPMI-8226,> 100 µM (inactive)
same,GI50,UO-31,> 100 µM (inactive)
same,GI50,ACHN,> 100 µM (inactive)
same,GI50,SF-539,> 100 µM (inactive)
same,GI50,HL-60,> 100 µM (inactive)
same,GI50,K562,> 100 µM (inactive)
same,GI50,PC-3,> 100 µM (inactive)
same,GI50,UACC-62,> 100 µM (inactive)
same,GI50,NCI-H23,> 100 µM (inactive)
same,GI50,MDA-MB-435,> 100 µM (inactive)
same,GI50,Malme-3M,> 100 µM (inactive)
same,GI50,SW-620,> 100 µM (inactive)
same,GI50,HT-29,> 100 µM (inactive)
same,GI50,SK-MEL-5,> 100 µM (inactive)
same,GI50,786-0,> 100 µM (inactive)
same,GI50,SNB-19,> 100 µM (inactive)
same,GI50,SF-295,> 100 µM (inactive)
same,GI50,MDA-N,> 100 µM (inactive)

# From ChEMBL document CHEMBL1201862, “PubChem BioAssay data set” (2004)
